Measured values from patent US10632110B2, “Pharmaceutical composition for preventing or treating cancer and method using thereof” (MEDPACTO INC., priority 2016, dated 2020).
Marks after values point to notes of the source that are not given here.

Key:
Assay type in all cases: in vivo, C57BL/6 mice
[1] = Measurement of weight caused by administration drug in melanoma mouse model
Experimental: (§1) In order to validate in vivo anti-tumor effects, female 5 week-old SPF C57BL/6 mice were purchased from Koatech Co. (South Korea). These mice were maintained in a room controlled at a temperature of about 22° C. while freely supplying food and water to them. 1 week after, 5×10^4 cells of B16F10 melanoma cell line (ATCC, CRL-6475™) were injected to these 6 week-old mice by subcutaneous injection. 8 week-old mice, 2 weeks after the injection of melanoma cell line, were used in the experiment.
(§2) As a carrier, 7 ml of 37% (v/v) […], 2.0 g of NaCl, 3.2 g of pepsin (Sigma-Aldrich), and distilled water were mixed together to prepare 1,000 ml of artificial gastric fluid. As an administration drug, N-((4-([1,2,4]triazolo[1,5-a]pyridin-6-yl)-5-(6-methylpyridin-2-yl)-1H-imidazol-2-yl)methyl)-2-fluoroaniline (hereinafter, referred to as “TEW-7197”) (Syngene, India) was dissolved in the carrier to prepare 2.5 mg/ml of TEW-7197 solution.
(§3) As for another administration drug, anti-PD-L1 monoclonal antibody (prepared by requesting to ANR therapeutics co., Ltd., host cell: HEK293F), anti-PD1 monoclonal hamster antibody (BioXCell, Cat. No. BE0033-2), anti-CTLA4 monoclonal hamster antibody (BioXCell, Cat. No. BE0131), human immunoglobulin G (IgG) (Thermo Scientific, Cat. No. 31154), and monoclonal hamster IgG (BioXCell, Cat. No. BE0091) were prepared.
(§4) The mouse models prepared in 1. were orally administered with 2.5 mg/ml of a TEW-7197 solution at a dose of 25 mg/weight kg once a day for 5 consecutive days of a week. Then, during the last 2 days, the TEW-7197 solution was not administered to them. These mice were administered with antibody at a dose of about 100 μg per mouse once every 2 days by abdominal injection. As for a control group for TEW-7197, a carrier administered group was used. As for a control group for antibody, a human IgG administered group and a hamster IgG administered group were used.
From the day that the drugs were administered (start date) to the 11th day, the weights of mice were measured every 2 days.

[2] = system: B16F10 melanoma cell line; test: Test of tumor inhibitory effects of drug in mouse model; design: tumor inhibition rate (vs. vehicle, human IgG or hamster IgG administered group): concentration or dose not given beside the values; details: for Tumor volume change (Δt = Vt − V0): TEW-7197 25 mg/kg oral, antibody about 100 μg per mouse
Experimental: as §1, §2, §3, §4
As described in 2., drug administration was carried out, and then 20 minutes after the last dose of the drug, mice were sacrificed, tumors were resected from the mice. Tumor volume was measured with calipers and calculated using Equation 1: Tumor volume (mm^3)=[length (mm)×width (mm)×height (mm)]/2 [Equation 1]
The difference between the initial tumor volume (V0) in the start date and the tumor volume after drug administration (Vt) was calculated, to calculate the change in tumor volume (Δt=Vt−V0). From the calculated tumor volume, the tumor inhibition rate (%) by drug administration was calculated.

[3] = system: B16F10 melanoma cell line; test: Test of synergistic combination of drugs in mouse model; details: 11 days after drug administration, TEW-7197 10 mg/kg oral, antibody about 100 μg per mouse
Experimental: In detail, as described in 1., C57BL/6 mice were prepared, and 1×10^4 cells of B16F10 melanoma cell line (ATCC, CRL-6475™) were injected to each of the mice. When the average tumor size of each group reached about 26.0 mm^3, drug administration was carried out.
As described in 1., TEW-7197, anti-CTLA4 antibody, anti-PD-L1 antibody, anti-PD1 antibody, human IgG, and hamster IgG were prepared as drugs.
The prepared mice were orally administered with a TEW-7197 solution at a dose of 10 mg/weight kg once a day for 5 consecutive days of a week. Then, during the last 2 days, the TEW-7197 solution was not administered. These mice were administered with antibody at a dose of about 100 μg per mouse once every 2 days by abdominal injection. In a negative control group, a vehicle was administered for TEW-7197, and human IgG or hamster IgG was administered for antibody. 11 days after the drug administration, tumor volume was measured with calipers and calculated as described in 3.

Cc1cccc(-c2[nH]c(CNc3ccccc3F)nc2-c2ccc3ncnn3c2)n1 [TEW-7197, N-((4-([1,2,4]triazolo[1,5-a]pyridin-6-yl)-5-(6-methylpyridin-2-yl)-1H-imidazol-2-yl)methyl)-2-fluoroaniline]
weight change of mice (average (%) ± standard deviation) ([1]; 2 days after administration, TEW-7197 25 mg/kg oral, antibody about 100 μg per mouse): 104.3 ± 1.2% | weight change of mice (average (%) ± standard deviation) ([1]; 4 days after administration, TEW-7197 25 mg/kg oral, antibody about 100 μg per mouse): 106.7 ± 3.5% | weight change of mice (average (%) ± standard deviation) ([1]; 6 days after administration, TEW-7197 25 mg/kg oral, antibody about 100 μg per mouse): 108.7 ± 4.5% | weight change of mice (average (%) ± standard deviation) ([1]; 8 days after administration, TEW-7197 25 mg/kg oral, antibody about 100 μg per mouse): 115.8 ± 6.4% | weight change of mice (average (%) ± standard deviation) ([1]; 11 days after administration, TEW-7197 25 mg/kg oral, antibody about 100 μg per mouse): 125.0 ± 6.5% | weight change of mice (average (%) ± standard deviation) ([1]; Start date, TEW-7197 25 mg/kg oral once a day 5 days a week, antibody about 100 μg per mouse every 2 days abdominal injection): 100.0 ± 0.0% | weight change caused by drug (in words) ([1]; up to 11th day, Table 2): barely had significant weight change | tumor inhibition rate (vs. vehicle, human IgG or hamster IgG administered group) ([2]; 2 days after administration): 21.3% | Tumor volume change (Δt = Vt − V0) ([2]; 2 days after administration): 30.4 ± 6.6 mm^3 | tumor inhibition rate (vs. vehicle, human IgG or hamster IgG administered group) ([2]; 4 days after administration): 21.7% | Tumor volume change (Δt = Vt − V0) ([2]; 4 days after administration): 100.4 ± 11.4* mm^3 | tumor inhibition rate (vs. vehicle, human IgG or hamster IgG administered group) ([2]; 6 days after administration): 23.0% | Tumor volume change (Δt = Vt − V0) ([2]; 6 days after administration): 174.5 ± 29.6** mm^3 | tumor inhibition rate (vs. vehicle, human IgG or hamster IgG administered group) ([2]; 8 days after administration): 22.9% | Tumor volume change (Δt = Vt − V0) ([2]; 8 days after administration): 455.3 ± 67.1* mm^3 | tumor inhibition rate (vs. vehicle, human IgG or hamster IgG administered group) ([2]; 11 days after administration): 20.9% | Tumor volume change (Δt = Vt − V0) ([2]; 11 days after administration): 1084.0 ± 179.5* mm^3 | Tumor volume change (Δt = Vt − V0) ([2]; Start date): 0.0 ± 0.0 mm^3 | tumor volume decrease as compared with the negative control group ([3]; FIG. 1A (anti-CTLA4 series)): about 10.1% | tumor volume decrease as compared with the negative control group ([3]; FIG. 1B (anti-PD-L1 series)): about 9.2% | tumor volume decrease as compared with the negative control group ([3]; FIG. 1C (anti-PD1 series)): about 8.1%
